Columns and labels:
VM-M3 cells = assay type: cell-based, mouse; settings: 5 mM βHB, 24, 48, 72 and 96 hrs
Experimental: Cell proliferation rate was measured using the MTT Cell Proliferation Assay (ATCC). Cells were plated onto a 96 well plate and grown to desired density. […] In proliferating cells, MTT is reduced to purple formazan which absorbs light at 490-520 nm and whose excitation can be measured using standard fluorescent microscopy and spectrophotometry. Rapidly dividing cells reduce MTT at very high rates, indicating their rate of proliferation. Cell proliferation can also be measured with Ki67 immunohistochemistry staining, cell viability can also be evaluated with the LDH Cytotoxicity Assay (Cayman Chemical).
Cell viability was measured using the LIVE/DEAD Viability/Cytotoxicity Kit for Mammalian Cells (Invitrogen). Cells were grown to desired density on a coverslip and washed with Dulbecco's phosphate-buffered saline (D-PBS). […] The two-color fluorescence assay contains two probes which specifically label live or dead cells. […] Calcein produces an intense green fluorescence with an excitation/emission of 495/515 nm. Ethidium homodimer-1 (Ethd-1) enters cells with damaged membranes and binds to nucleic acid. Ethd-1 bound to DNA produces a red fluorescence in dead cells with an excitation/emission of 495/635 nm. Live and dead cells were identified and quantified using standard fluorescent microscopy. […]

[1] = in vivo; cited from earlier work
[2] = system: primary cultured cortex neurons; test: Superoxide anion production (DHE fluorescence) in neurons treated with HBO or amyloid beta; assay type: cell-based, rat; settings: 60 min, 5 ATA O2; 2 mM ketones
Experimental: Effect of ketones on superoxide production in neurons treated with Aβ1-42 and HBO and cell viability of U87MG cells was examined Primary dissociated neuronal cultures of the hippocampus and cortex were acquired from Brain Bits LLC, to increase time efficiency and to minimize cost associated with purchasing rats. Hippocampal or cortical tissue from Brain Bits (shipped in Hibernate®) were enzymatically and mechanically dissociated via pipette trituration. Neurons were plated on 12 mm glass coverslips and allowed to adhere for 1-2 hrs in an incubator maintained at 9-20% O2 in a humidified atmosphere. Cultures were maintained in media purchased from Brain Bits, including NbActiv1® and NbActive4. […]
Presence of intracellular ROS is measured by detection of superoxide anion using Dihydroethidium (DHE). […] Cells were washed in PBS and then visualized using fluorescent microscopy or quantified using spectrophotometry. […]
Acquisition and statistical analyses of fluorescence imaging was performed as previously reported (D'Agostino, 2007; Filosa, 2002; Ritucci, 1996; Ritucci, 1997; Ritucci, 1998; Crowe, 1995; Weinlich, 1998; Inglefield, 1998; Inglefield, 1999). Average fluorescence intensity (FI) for each cell is calculated as the percent change in fluorescence from baseline, […], where FIb is the basal fluorescence defined by the two images preceding the experimental recordings. […]

[3] = rat; cited from earlier work

CC(O)CC(=O)O (stereo not drawn) [βHB, β-hydroxybutyrate]
proliferation (VM-M3 cells): significantly decreased

MCT oil
levels of ketones produced by supplementation [1]: < 500 µM

Cc1ccccc1NC(=N)Nc1ccccc1C [DTG, 1,3,-di-o-tolylguanidine]
effect on superoxide anion production under hyperoxia [2]: prevented the hyperoxia-induced increase in superoxide production

CC(C)=O [Acetone]
LD50 [3]: > 5000 mg/kg

From patent US20140072654A1, “CANCER WITH METABOLIC THERAPY AND HYPERBARIC OXYGEN” (priority 2011, published 2014)
